Reference: PMC10780766, “From Bench to Bedside: Patient-Oriented Radiopharmaceutical Development in Nuclear Medicine Based on the Example of [^89Zr]Zr-PSMA-DFO” (Molecules, 2023)
Like-named read-outs stand apart in the source and are kept apart here.

Tests used:
[1] = system: PSMA binding sites (PSMA-positive LNCaP cell lines); design: method as in PMID 34370181; details: LNCaP cells; cited from earlier work
[2] = system: PSMA (prostate-specific membrane antigen) on prostate cancer cells; design: method as in PMID 34370181; details: cited from earlier work
[3] = system: PSMA (prostate-specific membrane antigen) on prostate cancer cells; design: method as in PMID 34370181; details: cited from earlier work; remark: listed apart in the source
LNCaP tumor xenograft = system: LNCaP tumor xenograft; design: method as in PMID 34370181; details: LNCaP tumor xenografts, n = 5, cited from earlier work
LNCaP tumors = system: LNCaP tumors; design: method as in PMID 34370181; details: cited from earlier work
[4] = design: method as in PMID 34370181; details: up to 7 days at 37 °C; cited from earlier work
PSMA-positive lesions = system: PSMA-positive lesions; design: method as in PMID 34326129; details: cited from earlier work
[5] = Storage of iron-free precursor in aqueous solution, then labeling, cell binding and internalization; assay type: physicochemical; details: storage at 5 °C in an aqueous solution for 6 months
Source text: Such synthesis modules have been specifically designed to enable the versatile and efficient routine production of various radiopharmaceuticals while adhering to GMP requirements. The concept of disposable cassettes pursued in this approach allows the user to label different radionuclides on the same synthesis device without the risk of cross-contamination. The disposable cassettes include all necessary vessels, reagents, and purification columns. The automated process concludes with a final sterile filtration, including a filter integrity test. Iron removal should therefore take place before the actual labeling process. We wanted to verify whether it is possible to establish a stock of an iron-free PSMA-DFO precursor, stored in an aqueous solution at 4 °C in the refrigerator, and to determine its shelf life. This was done by investigating whether the iron-free precursor can be labeled with zirconium-89 after several months of storage without compromising the yield, cell binding, and internalization.

Molecule	Bmax [1] [fmol/10^6 Cells]	Kd [1] [nM]	Specific binding as a percentage of the total cellular activity ([2]; 0.5 h) [%]	Specific binding as a percentage of the total cellular activity ([2]; 1 h) [%]	Specific binding as a percentage of the total cellular activity ([2]; 2 h) [%]	Specific binding as a percentage of the total cellular activity ([2]; 3 h) [%]	Specific binding as a percentage of the total cellular activity ([2]; 5 h) [%]	Specific internalization as a percentage of the total cellular activity ([3]; 0.5 h) [%]	Specific internalization as a percentage of the total cellular activity ([3]; 1 h) [%]	Specific internalization as a percentage of the total cellular activity ([3]; 2 h) [%]	Specific internalization as a percentage of the total cellular activity ([3]; 3 h) [%]	Specific internalization as a percentage of the total cellular activity ([3]; 5 h) [%]	tumor/blood ratio (LNCaP tumor xenograft; 4 h after i.v. injection)	tumor/muscle ratio (LNCaP tumor xenograft; 4 h after i.v. injection)	also measured
[^177Lu]Lu-PSMA 617	2021 ± 66	5.81 ± 0.71	16.0 ± 0.2	19.7 ± 1.1	30.4 ± 1.0	35.5 ± 1.0	40.7 ± 2.4	4.1 ± 0.1	6.7 ± 0.1	12.8 ± 1.3	16.9 ± 0.2	22.9 ± 0.9	–	–	–
COc1nc(F)ccc1C(=O)NCCCCC(NC(=O)NC(CCC(=O)O)C(=O)O)C(=O)O (stereo not shown) [[^18F]F-JK-PSMA 7]	–	5.07 ± 0.45	–	–	–	–	–	–	–	–	–	–	–	–	–
CC(=O)N([O-])CCCCCNC(=O)CCC(=O)N([O-])CCCCCNC(=O)CCC(=O)N([O-])CCCCCNC(=O)CCC(=O)NCC1CCC(C(=O)NC(Cc2ccc3ccccc3c2)C(=O)NCCCCC(NC(=O)NC(CCC(=O)O)C(=O)O)C(=O)O)CC1.[89Zr+4] (stereo not shown) [[^89Zr]Zr-PSMA-DFO]	1428 ± 42	4.97 ± 0.57	29.1 ± 2.1	38.5 ± 2.3	46.5 ± 1.3	48.8 ± 1.0	49.4 ± 1.3	9.5 ± 0.6	15.3 ± 1.0	22.3 ± 1.0	24.4 ± 0.6	30.4 ± 1.3	–	–	tumor/blood ratio (LNCaP tumor xenograft; 24 h after i.v. injection): 309 ± 89; tumor/muscle ratio (LNCaP tumor xenograft; 24 h after i.v. injection): 450 ± 38; Tumor visualization at later time points (LNCaP tumors; PET scans up to 48 h after injection): clear tumor visualization; Radioactive background radiation in the kidneys and bladder (LNCaP tumors; after 48 h, mice with LNCaP tumor xenografts): minimal; Ability to visualize tumors compared with [68Ga]Ga-PSMA-11 or [18F]F-JK-PSMA-7 (LNCaP tumors; early time points (1 h after injection)): similar; Stability in human serum [4]: very high stability; Stability in phosphate-buffered saline (PBS) [4]: very high stability; Detected lesions whose validity was supported (histology, follow-up after radiation therapy, additional imaging) (PSMA-positive lesions): 14 out of 15; Level of radioactivity in the 15 lesions (SUVmax) versus the original PET scans (PSMA-positive lesions): significantly higher; Number of PSMA-positive lesions detected (PSMA-positive lesions; in 8 out of 14 patients): 15; Patients in whom PSMA-positive lesions were detected (PSMA-positive lesions; patients with BCR and initially negative PET scans using the usual tracers): 8 out of 14
COc1nc([18F])ccc1C(=O)NCCCCC(NC(=O)NC(CCC(=O)O)C(=O)O)C(=O)O (stereo not shown) [[^18F]F-JK-PSMA 7]	2702 ± 61	–	23.8 ± 0.6	32.6 ± 0.4	38.8 ± 1.3	45.2 ± 1.9	45.8 ± 0.4	4.7 ± 0.4	11.1 ± 0.7	17.2 ± 1.3	20.8 ± 0.6	21.8 ± 0.3	175 ± 30	114 ± 14	–
O=C([O-])CN(CCN(CC(=O)[O-])Cc1cc(CCC(=O)NCCCCCC(=O)NCCCC[C@H](NC(=O)N[C@@H](CCC(=O)O)C(=O)O)C(=O)O)ccc1[O-])Cc1cc(CCC(=O)O)ccc1[O-].[68Ga+3].[OH3+] [[^68Ga]Ga-PSMA 11]	1746 ± 53	5.15 ± 0.6	27.7 ± 0.7	35.3 ± 3.1	42.0 ± 1.2	46.3 ± 2.1	48.3 ± 1.2	8.0 ± 0.4	14.0 ± 1.9	20.3 ± 1.5	23.3 ± 0.8	27.4 ± 1.6	112 ± 57	58 ± 36	–
CC(=O)N(O)CCCCCNC(=O)CCC(=O)N(O)CCCCCNC(=O)CCC(=O)N(O)CCCCCNC(=O)CCC(=O)NCC1CCC(C(=O)NC(Cc2ccc3ccccc3c2)C(=O)NCCCCC(NC(=O)NC(CCC(=O)O)C(=O)O)C(=O)O)CC1 (stereo not shown) [N-sucDFO-PSMA]	–	–	–	–	–	–	–	–	–	–	–	–	–	–	Chemical reactivity, specific binding and internalization after storage [5]: remained unaffected
